Measurements from patent publication US11492345B2, “Compounds and their methods of use” (Praxis Precision Medicines, Inc., priority 2017, dated 2022).

What follows are compounds tested against T1, human Nav1.6 (hNav1.6) (Homo sapiens, UniProt Q9UQD0) (assay: Modulation of late sodium current (INaL), PatchXpress electrophysiology). Details: HEK293; 1 μM compound; HEK-293 cells expressing recombinant human Nav channel; late current evoked by 300 nM ATX-II; steady-state inhibition; read-out: INaL v1.6 (1 μM, % Inhibition).
T1 construct: expressed in transfected cells; host or cells: HEK-293 (G418 selection)
T1 sequence (Q9UQD0 whole entry): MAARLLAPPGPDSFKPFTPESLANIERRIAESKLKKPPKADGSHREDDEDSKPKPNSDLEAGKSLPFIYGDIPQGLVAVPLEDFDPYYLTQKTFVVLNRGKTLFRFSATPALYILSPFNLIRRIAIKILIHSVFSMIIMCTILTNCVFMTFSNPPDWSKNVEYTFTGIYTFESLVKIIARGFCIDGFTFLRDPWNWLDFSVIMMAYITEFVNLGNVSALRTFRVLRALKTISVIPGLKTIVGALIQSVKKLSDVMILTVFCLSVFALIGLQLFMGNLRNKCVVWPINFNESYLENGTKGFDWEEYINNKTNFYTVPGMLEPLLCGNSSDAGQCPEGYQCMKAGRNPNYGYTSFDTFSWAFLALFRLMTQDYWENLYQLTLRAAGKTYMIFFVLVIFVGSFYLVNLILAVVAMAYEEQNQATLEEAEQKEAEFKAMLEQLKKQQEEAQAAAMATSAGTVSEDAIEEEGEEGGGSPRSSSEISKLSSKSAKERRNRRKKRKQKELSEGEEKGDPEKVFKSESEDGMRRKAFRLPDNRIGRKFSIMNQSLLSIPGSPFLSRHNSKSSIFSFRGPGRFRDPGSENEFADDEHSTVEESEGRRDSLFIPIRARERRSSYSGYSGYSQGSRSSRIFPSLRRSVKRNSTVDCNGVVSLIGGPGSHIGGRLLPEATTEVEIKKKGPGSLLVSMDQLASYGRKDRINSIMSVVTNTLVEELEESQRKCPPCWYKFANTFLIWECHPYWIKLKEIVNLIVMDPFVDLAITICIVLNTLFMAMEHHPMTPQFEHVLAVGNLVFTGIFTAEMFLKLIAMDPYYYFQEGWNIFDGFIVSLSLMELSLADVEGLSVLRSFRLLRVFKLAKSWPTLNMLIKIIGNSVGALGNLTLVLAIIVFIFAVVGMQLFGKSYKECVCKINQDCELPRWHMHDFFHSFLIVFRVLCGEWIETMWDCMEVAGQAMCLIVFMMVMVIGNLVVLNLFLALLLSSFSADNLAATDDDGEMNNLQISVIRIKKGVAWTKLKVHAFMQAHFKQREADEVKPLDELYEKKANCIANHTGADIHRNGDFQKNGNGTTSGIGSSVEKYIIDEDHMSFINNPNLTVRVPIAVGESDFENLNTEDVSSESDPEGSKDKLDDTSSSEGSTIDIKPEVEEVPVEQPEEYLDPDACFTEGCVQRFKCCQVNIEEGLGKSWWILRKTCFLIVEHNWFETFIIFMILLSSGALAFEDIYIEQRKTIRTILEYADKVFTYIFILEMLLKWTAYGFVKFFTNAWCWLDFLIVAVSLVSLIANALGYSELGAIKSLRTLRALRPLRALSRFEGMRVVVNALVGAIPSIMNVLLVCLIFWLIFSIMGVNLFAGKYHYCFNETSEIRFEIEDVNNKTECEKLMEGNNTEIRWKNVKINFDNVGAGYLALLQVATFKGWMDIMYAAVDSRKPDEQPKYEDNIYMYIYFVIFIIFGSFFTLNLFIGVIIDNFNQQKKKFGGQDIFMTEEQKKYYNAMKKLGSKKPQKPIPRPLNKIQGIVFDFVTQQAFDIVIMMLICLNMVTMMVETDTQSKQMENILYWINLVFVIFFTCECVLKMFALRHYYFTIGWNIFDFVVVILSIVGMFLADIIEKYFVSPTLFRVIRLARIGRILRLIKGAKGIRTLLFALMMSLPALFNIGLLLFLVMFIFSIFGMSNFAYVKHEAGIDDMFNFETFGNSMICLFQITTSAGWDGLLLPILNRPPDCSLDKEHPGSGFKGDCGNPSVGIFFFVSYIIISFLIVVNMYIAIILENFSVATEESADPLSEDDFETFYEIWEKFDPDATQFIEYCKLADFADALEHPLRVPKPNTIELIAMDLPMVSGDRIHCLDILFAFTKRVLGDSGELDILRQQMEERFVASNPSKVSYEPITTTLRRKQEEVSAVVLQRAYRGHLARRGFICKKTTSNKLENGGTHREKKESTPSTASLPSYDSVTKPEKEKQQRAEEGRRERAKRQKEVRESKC
Type: cell-based
Description: Functional characterization of exemplary compounds to modulate INaL expressed by the Nav1.6 voltage-gated sodium channel was accomplished using the PatchXpress™ high throughput electrophysiology platform (Molecular Devices, Sunnyvale, Calif.). HEK-293 cells expressing recombinant, human Nav1.6 (hNav1.6) were grown in DMEM/high-glucose Dulbecco's modified, 10% FBS, 2 mM sodium pyruvate, 10 mM HEPES and 400 μg/mL G418. Cells were grown to 50%-80% confluency prior to harvesting. Trypsinized cells were washed, allowed to recover for 1 hour and then resuspended in extracellular recording solution at a concentration of 1×10^6 cells/ml. The onboard liquid handling facility of the PatchXpress was used for dispensing cells and applying test compounds. Nav late currents were evoked by the application of 300 nM ATX-II. INaL was evoked by depolarizing pulses to 0 mV for 200 ms from a non-inactivating holding potential (e.g., −120 mV) at a frequency of 0.1 Hz. INaL amplitude and stability were determined by analyzing the mean current amplitude over the final 20 ms of the test pulse. […] Percent steady-state inhibition of INaL was calculated as: [(INaL_compound)/(INaL_control)]*100, where INaL_compound and INaL_control represent INaL recorded in the presence or absence of compound, respectively.
For `O=c1oc2ccc(-c3ccc(OC(F)(F)F)cc3)cc2n1Cc1cnccn1` [Compound 131], the inhibition at 1 µM was over 70%. For `O=C(Cn1c(=O)oc2ccc(-c3ccc(OC(F)(F)F)cc3)cc21)N1CCOCC1` [Compound 40], the inhibition at 1 µM was 30 to 70%. `O=c1oc2ccc(-c3ccc(OC(F)(F)F)cc3)nc2n1CCc1cncnc1` [Compound 124] showed an inhibition at 1 µM of over 70%. Work on `Cc1oncc1Cn1c(=O)oc2ccc(-c3ccc(OC(F)(F)F)cc3)nc21` [Compound 154] yielded an inhibition at 1 µM of over 70%. Work on `CCN(CC)C(=O)Cn1c(=O)oc2ccc(-c3ccc(OC(F)(F)F)cc3)cc21` [Compound 39] yielded an inhibition at 1 µM of over 70%. For `O=c1oc2ccc(-c3ccc(OC(F)(F)F)cc3)nc2n1C[C@H]1CC1(F)F` (single isomer, unassigned) [Compound 106], the inhibition at 1 µM was over 70%. With `O=C(Cn1c(=O)oc2ccc(-c3ccc(OC(F)(F)F)cc3)cc21)N1CCCC1` [Compound 17] the inhibition at 1 µM was 30 to 70%. Work on `O=C(Cn1c(=O)oc2ccc(-c3ccc(OC(F)(F)F)cc3)nc21)N1CCCC1` [Compound 79] yielded an inhibition at 1 µM of 30 to 70%. `CCN(CC)C(=O)CCn1c(=O)oc2ccc(-c3ccc(OC(F)(F)F)cc3)cc21` [Compound 28] was tested, and the inhibition at 1 µM was over 70%. For `C[C@H](O)CCn1c(=O)oc2ccc(-c3ccc(OC(F)(F)F)cc3)nc21` (single isomer, unassigned) [Compound 99], the inhibition at 1 µM was over 70%. `O=c1oc2ccc(-c3ccc(OC(F)(F)F)cc3)cc2n1CCc1cnccn1` [Compound 120] was tested, and the inhibition at 1 µM was over 70%. In the case of `C[C@@H](O)CCn1c(=O)oc2ccc(-c3ccc(OC(F)(F)F)cc3)cc21` [Compound 97], the inhibition at 1 µM is reported as over 70%. `[2H]C([2H])([2H])n1c(=O)oc2ccc(-c3ccc(OC(F)(F)F)cc3)nc21` [Compound 93] showed an inhibition at 1 µM of over 70%. In the case of `O=c1oc2ccc(-c3ccc(OC(F)(F)F)cc3)nc2n1C[C@H]1CCCOC1` (single isomer, unassigned) [Compound 66], the inhibition at 1 µM is reported as over 70%. Compound `O=c1oc2ccc(-c3ccc(OC(F)(F)F)cc3)cc2n1Cc1ncccn1` [Compound 50] has an inhibition at 1 µM of 30 to 70%. For `O=c1oc2ccc(-c3ccc(OC(F)(F)F)cc3)cc2n1CC1CCCCO1` (stereo not shown) [Compound 57], the inhibition at 1 µM was over 70%. `CC(C)n1c(=O)oc2ccc(-c3ccc(OC(F)(F)F)cc3)nc21` [Compound 78] was tested, and the inhibition at 1 µM was over 70%. In the case of `Cn1ncnc1Cn1c(=O)oc2ccc(-c3ccc(OC(F)(F)F)cc3)nc21` [Compound 164], the inhibition at 1 µM is reported as 30 to 70%. For `CCn1c(=O)oc2ccc(-c3cnc(OCC(F)(F)F)c(F)c3)nc21` [Compound 71], the inhibition at 1 µM was under 30%. `O=c1oc2ccc(-c3ccc(OC(F)(F)F)cc3)cc2n1CCc1ccncn1` [Compound 147] was tested, and the inhibition at 1 µM was over 70%. `Cn1cnnc1Cn1c(=O)oc2ccc(-c3ccc(OC(F)(F)F)cc3)nc21` [Compound 163] was tested, and the inhibition at 1 µM was under 30%. For `O=c1oc2ccc(-c3ccc(OC(F)(F)F)cc3)cc2n1C[C@H]1CCCO1` [Compound 105], the inhibition at 1 µM was over 70%. With `O=c1oc2ccc(-c3ccc(OC(F)(F)F)cc3)nc2n1Cc1ccncn1` [Compound 141] the inhibition at 1 µM was 30 to 70%. In the case of `Cc1cc(OC(F)(F)F)ccc1-c1ccc2oc(=O)n(CCc3ncccn3)c2n1` [Compound 121], the inhibition at 1 µM is reported as 30 to 70%. `O=c1oc2ccc(-c3ccc(OC(F)(F)F)cc3)cc2n1CC1CCOCC1` [Compound 56] gave an inhibition at 1 µM of over 70%. In the case of `Cc1noc(Cn2c(=O)oc3ccc(-c4ccc(OC(F)(F)F)cc4)nc32)n1` [Compound 161], the inhibition at 1 µM is reported as over 70%. `Cc1nc(Cn2c(=O)oc3ccc(-c4ccc(OC(F)(F)F)cc4)nc32)co1` [Compound 159] was tested, and the inhibition at 1 µM was over 70%. With `O=c1[nH]c2cc(-c3ccc(OC(F)(F)F)cc3)cnc2o1` [Compound 37] the inhibition at 1 µM was 30 to 70%. Work on `Cn1c(=O)oc2ccc(-c3ccc(OC(F)(F)F)cc3)cc21` [Compound 10] yielded an inhibition at 1 µM of over 70%. Work on `CNC(=O)Cn1c(=O)oc2ccc(-c3ccc(OC(F)(F)F)cc3)cc21` [Compound 41] yielded an inhibition at 1 µM of under 30%. With `O=c1oc2ccc(-c3ccc(OC(F)(F)F)cc3)nc2n1CCCO` [Compound 90] the inhibition at 1 µM was 30 to 70%. `CC(O)CCn1c(=O)oc2ccc(-c3ccc(OC(F)(F)F)cc3)nc21` (stereo not shown) [Compound 89] was tested, and the inhibition at 1 µM was over 70%. `O=c1oc2ccc(-c3ccc(OC(F)(F)F)cc3)nc2n1CC(F)(F)F` [Compound 33] was tested, and the inhibition at 1 µM was over 70%. Compound `O=c1oc2ccc(-c3ccc(OC(F)(F)F)cc3)cc2n1C[C@@H]1CCCO1` [Compound 104] has an inhibition at 1 µM of over 70%. In the case of `O=c1oc2ccc(-c3ccc(OC(F)(F)F)cc3)cc2n1CC(F)(F)F` [Compound 2], the inhibition at 1 µM is reported as 30 to 70%. In the case of `C[C@H](Cn1c(=O)oc2ccc(-c3ccc(OC(F)(F)F)cc3)nc21)c1ncccn1` (single isomer, unassigned) [Compound 149], the inhibition at 1 µM is reported as over 70%. For `O=c1oc2ccc(-c3ccc(OC(F)(F)F)cc3)cc2n1C[C@H]1CCCOC1` (single isomer, unassigned) [Compound 73], the inhibition at 1 µM was over 70%. `O=C1CCCN1CCCn1c(=O)oc2ccc(-c3ccc(OC(F)(F)F)cc3)cc21` [Compound 30] was tested, and the inhibition at 1 µM was 30 to 70%. `C[C@@H](Cn1c(=O)oc2ccc(-c3ccc(OC(F)(F)F)cc3)nc21)c1ncccn1` (single isomer, unassigned) [Compound 150] was tested, and the inhibition at 1 µM was 30 to 70%. For `O=c1[nH]c2cc(-c3ccc(OCC(F)(F)F)nc3)ccc2o1` [Compound 20], the inhibition at 1 µM was 30 to 70%. With `O=C(CCn1c(=O)oc2ccc(-c3ccc(OC(F)(F)F)cc3)cc21)N1CCCC1` [Compound 26] the inhibition at 1 µM was over 70%. `O=C(Cn1c(=O)oc2ccc(-c3ccc(OC(F)(F)F)cc3)nc21)N1CCCCC1` [Compound 119] was tested, and the inhibition at 1 µM was over 70%. Compound `Cn1cnc(Cn2c(=O)oc3ccc(-c4ccc(OC(F)(F)F)cc4)nc32)n1` [Compound 157] has an inhibition at 1 µM of 30 to 70%. For `O=c1oc2ccc(-c3ccc(OC(F)(F)F)cc3)nc2n1C[C@H]1CCCO1` (single isomer, unassigned) [Compound 65], the inhibition at 1 µM was 30 to 70%. Compound `O=c1oc2ncc(-c3ccc(OC(F)(F)F)cc3)cc2n1CC(F)(F)F` [Compound 22] has an inhibition at 1 µM of under 30%. For `O=c1oc2ccc(-c3ccc(OC(F)(F)F)cc3)nc2n1C[C@@H]1CC1(F)F` (single isomer, unassigned) [Compound 107], the inhibition at 1 µM was 30 to 70%. In the case of `O=c1oc2ccc(-c3ccc(OC(F)(F)F)cc3)cc2n1CC1CC1` [Compound 12], the inhibition at 1 µM is reported as over 70%. In the case of `O=c1oc2ccc(-c3ccc(OC(F)(F)F)cc3)cc2n1C[C@H]1CCCCO1` (single isomer, unassigned) [Compound 59], the inhibition at 1 µM is reported as 30 to 70%. In the case of `O=c1oc2ncc(-c3ccc(OC(F)(F)F)cc3)cc2n1Cc1ncccn1` [Compound 49], the inhibition at 1 µM is reported as under 30%. In the case of `C[C@@H](O)CCn1c(=O)oc2ccc(-c3ccc(OC(F)(F)F)cc3)nc21` (single isomer, unassigned) [Compound 100], the inhibition at 1 µM is reported as over 70%. `O=c1oc2ccc(-c3ccc(OC(F)(F)F)cc3)nc2n1CC1CCOCC1` [Compound 101] showed an inhibition at 1 µM of over 70%. Work on `O=C(O)Cn1c(=O)oc2ccc(-c3ccc(OC(F)(F)F)cc3)cc21` [Compound 16, 2-[2-oxo-5-[4-(trifluoromethoxy)phenyl]-1,3-benzoxazol-3-yl]acetic acid] yielded an inhibition at 1 µM of under 30%. In the case of `CC(C(=O)N1CCCC1)n1c(=O)oc2ccc(-c3ccc(OC(F)(F)F)cc3)cc21` (stereo not shown) [Compound 45], the inhibition at 1 µM is reported as under 30%. Compound `COCc1cc(OC(F)(F)F)ccc1-c1ccc2oc(=O)n(CC(F)(F)F)c2c1` [Compound 7] has an inhibition at 1 µM of over 70%. `O=c1oc2ccc(-c3ccc(OC(F)(F)F)cc3)cc2n1C[C@@H]1CCCCO1` (single isomer, unassigned) [Compound 58] showed an inhibition at 1 µM of over 70%. With `O=c1oc2ccc(-c3ccc(OC(F)(F)F)cc3)nc2n1C[C@@H]1CCCOC1` (single isomer, unassigned) [Compound 67] the inhibition at 1 µM was over 70%. `Cc1noc(C)c1Cn1c(=O)oc2ccc(-c3ccc(OC(F)(F)F)cc3)nc21` [Compound 152] showed an inhibition at 1 µM of under 30%. With `O=c1oc2ccc(-c3ccc(OC(F)(F)F)cc3)cc2n1CCc1cncnc1` [Compound 117] the inhibition at 1 µM was over 70%. `CS(=O)(=O)N1CCC[C@@H]1Cn1c(=O)oc2ccc(-c3ccc(OC(F)(F)F)cc3)cc21` [Compound 118] showed an inhibition at 1 µM of under 30%. Compound `O=c1oc2ccc(-c3ccc(OC(F)(F)F)cc3)nc2n1C[C@@H]1CCCCO1` (single isomer, unassigned) [Compound 55] has an inhibition at 1 µM of 30 to 70%. With `[2H]C([2H])([2H])C([2H])([2H])n1c(=O)oc2ccc(-c3ccc(OC(F)(F)F)cc3)nc21` [Compound 91] the inhibition at 1 µM was 30 to 70%. Work on `CC(=O)N1CCC[C@@H]1Cn1c(=O)oc2ccc(-c3ccc(OC(F)(F)F)cc3)cc21` [Compound 109] yielded an inhibition at 1 µM of over 70%. Work on `O=C1CCCN1CCn1c(=O)oc2ccc(-c3ccc(OC(F)(F)F)cc3)nc21` [Compound 142] yielded an inhibition at 1 µM of under 30%. Work on `O=C(Cn1c(=O)oc2ccc(-c3ccc(OC(F)F)cc3)cc21)N1CCCC1` [Compound 148] yielded an inhibition at 1 µM of under 30%. For `O=c1oc2ccc(-c3ccc(OC(F)(F)F)cc3)cc2n1Cc1cncnc1` [Compound 84], the inhibition at 1 µM was over 70%. Work on `O=c1oc2ccc(-c3ccc(OC(F)(F)F)cc3)cc2n1Cc1ccncn1` [Compound 132] yielded an inhibition at 1 µM of over 70%. Work on `CCn1c(=O)oc2ccc(-c3ccc(OC(F)(F)F)cc3)nc21` [Compound 76] yielded an inhibition at 1 µM of over 70%.
